Reference: ChEMBL document CHEMBL1201862, “PubChem BioAssay data set” (2004)
Calls of active or inactive are those of the source.

Columns and labels:
Assay type in all cases: functional
Vero = experiment: viability of Vero cells under compound – cytotoxicity control for flavivirus capping enzyme inhibitors (AID 588742); settings: Chlorocebus sabaeus
[1] = biological target: Glutathione-S-transferase (Schistosoma japonicum, UniProt Q26513); experiment: GST-antibody interaction or FRET quenching – biochemical, TR-FRET, artefact control for Vif-APOBEC3G degradation inhibitor project, dose response (AID 1117362)
[2] = biological target: Metabotropic glutamate receptor 7 (Homo sapiens, UniProt Q14831); experiment: potentiation of glutamate EC20 at mGlu7 – cell-based, calcium mobilization, Galpha15, dose response (AID 743384)
[3] = Late stage results for the probe development effort to identify inhibitors of Plasmodium falciparum gametocytes: Luminescence-based cell-based high throughput dose response assay to identify inhibitors of viability of late stage Plasmodium falciparum gametocytes.

Sequence of Metabotropic glutamate receptor 7 (Q14831 whole entry): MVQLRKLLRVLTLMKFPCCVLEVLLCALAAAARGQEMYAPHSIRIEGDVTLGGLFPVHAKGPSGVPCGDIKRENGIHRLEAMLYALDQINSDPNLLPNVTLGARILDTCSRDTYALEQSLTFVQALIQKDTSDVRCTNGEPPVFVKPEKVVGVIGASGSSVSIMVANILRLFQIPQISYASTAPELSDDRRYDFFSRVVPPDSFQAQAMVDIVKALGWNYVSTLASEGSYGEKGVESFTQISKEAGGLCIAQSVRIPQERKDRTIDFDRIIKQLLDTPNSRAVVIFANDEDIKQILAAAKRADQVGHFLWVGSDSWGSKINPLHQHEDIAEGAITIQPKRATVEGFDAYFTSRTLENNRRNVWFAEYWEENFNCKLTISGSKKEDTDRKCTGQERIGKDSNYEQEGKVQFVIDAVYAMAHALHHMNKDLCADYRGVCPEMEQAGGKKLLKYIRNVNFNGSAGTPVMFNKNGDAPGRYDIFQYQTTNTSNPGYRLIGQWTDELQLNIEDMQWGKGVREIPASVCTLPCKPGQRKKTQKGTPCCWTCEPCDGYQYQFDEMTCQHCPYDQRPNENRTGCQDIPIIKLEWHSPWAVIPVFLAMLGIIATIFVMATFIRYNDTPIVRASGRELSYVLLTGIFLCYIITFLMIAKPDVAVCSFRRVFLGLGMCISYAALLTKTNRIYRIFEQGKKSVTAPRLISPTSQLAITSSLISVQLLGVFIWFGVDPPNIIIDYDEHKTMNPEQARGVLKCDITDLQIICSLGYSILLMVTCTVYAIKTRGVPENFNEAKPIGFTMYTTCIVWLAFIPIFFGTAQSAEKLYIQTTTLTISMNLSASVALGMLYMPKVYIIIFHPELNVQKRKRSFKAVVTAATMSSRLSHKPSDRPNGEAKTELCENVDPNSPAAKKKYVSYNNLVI
Sequence of Glutathione-S-transferase (Q26513 whole entry): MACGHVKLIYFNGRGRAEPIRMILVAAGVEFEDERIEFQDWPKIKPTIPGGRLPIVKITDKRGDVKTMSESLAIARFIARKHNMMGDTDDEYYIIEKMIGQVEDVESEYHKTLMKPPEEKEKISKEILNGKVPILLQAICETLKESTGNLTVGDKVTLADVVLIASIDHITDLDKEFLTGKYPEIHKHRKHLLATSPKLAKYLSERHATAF

Oc1ccccc1/C=N/c1c(-c2ccco2)nc2ccccn12
CC50 (Vero): > 40 µM (active)
IC50 [1]: > 100 µM (active)

CCn1c(C)cc(C(=O)CSc2ccc(NC(C)=O)cc2)c1C
EC50 [2]: 10 µM (active)

O=C(Nc1nccs1)c1cn(-c2ccccc2)nc1-c1ccc(F)cc1
IC50 [3]: > 74.4 µM (inactive)
